From publication PMC12503909, “C1′‐Branched Acyclic Nucleoside Phosphonates as Inhibitors of Plasmodium Falciparum 6‐Oxopurine Phosphoribosyltransferase” (Chemmedchem, 2025)
Where a name gives a salt, the structure may show the parent alone.

Columns and labels:
[1] = biological target: T1, human HGPRT (Homo sapiens, UniProt P00492); experiment: Determination of Ki values, human HGPRT; type: biochemical; details: 0.1 M Tris-HCl, 10 mM MgCl2, pH 7.4; guanine 60 μM, variable PRib-PP; mean ± SD of three independent experiments
T1 construct: made in house
T1 sequence (P00492 1-218): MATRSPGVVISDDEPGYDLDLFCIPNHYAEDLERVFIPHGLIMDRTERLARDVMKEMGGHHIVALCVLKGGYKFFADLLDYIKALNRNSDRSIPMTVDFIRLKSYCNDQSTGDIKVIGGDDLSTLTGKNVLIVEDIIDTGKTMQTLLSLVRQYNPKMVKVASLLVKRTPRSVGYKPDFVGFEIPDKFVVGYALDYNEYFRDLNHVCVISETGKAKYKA
Protocol: (§1) The human and Pf enzymes were purified as described previously.^[ [7] ^, [26] ^] All assays were performed in 0.1 M Tris‐HCl, 10 mM MgCl2, pH 7.4. […] The K i was calculated using the equation, v o = Vmax.[S]o/[S]o + K m(app) and K m(app) = K m [1 + [I]/K i ].

[2] = biological target: T2, PfHGXPRT (Plasmodium falciparum, UniProt P20035); experiment: Determination of Ki values, PfHGXPRT; type: biochemical; details: 0.1 M Tris-HCl, 10 mM MgCl2, pH 7.4; guanine 60 μM, variable PRib-PP; mean ± SD of three independent experiments
T2 construct: made in house
T2 sequence (P20035 1-231): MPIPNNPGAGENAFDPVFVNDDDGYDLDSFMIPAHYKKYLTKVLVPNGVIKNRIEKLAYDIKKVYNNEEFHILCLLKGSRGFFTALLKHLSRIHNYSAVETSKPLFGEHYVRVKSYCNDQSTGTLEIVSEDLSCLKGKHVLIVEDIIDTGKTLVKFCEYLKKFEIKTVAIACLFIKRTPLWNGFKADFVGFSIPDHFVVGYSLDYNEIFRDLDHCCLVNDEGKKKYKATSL
Protocol: as §1

SMILES	Ki [1]	Ki [2]
O=c1[nH]cnc2c1ncn2C(COCCP(=O)(O)O)OCCOCP(=O)(O)O (centres unmarked) [18a, Sodium salt of (2‐(2‐(hypoxanthin‐9‐yl)‐2‐(2‐(phosphonatomethoxy)ethoxy)ethoxy)ethyl)phosphonic acid]	> 60 µM	5 ± 1 µM
O=c1[nH]cnc2c1ncn2C(COCP(=O)(O)O)OCCO (centres unmarked) [20a, Sodium salt of ((2‐(2‐hydroxyethoxy)‐2‐(hypoxanthin‐9‐yl)ethoxy)methyl) phosphonic acid]	160 µM	–
Nc1nc2c(ncn2C(COCP(=O)(O)O)OCCO)c(=O)[nH]1 (centres unmarked) [20b, Sodium salt of ((2‐(guanin‐9‐yl)‐2‐(2‐hydroxyethoxy)ethoxy)methyl)phosphonic acid]	30 ± 5 µM	5 ± 1 µM
Nc1nc2c(ncn2C(COCCP(=O)(O)O)OCCO)c(=O)[nH]1 (centres unmarked) [20d, Sodium salt of (2‐(2‐(2‐hydroxyethoxy)‐2‐(guanin‐9‐yl)ethoxy)ethyl)phosphonic acid]	2.5 ± 0.4 µM	0.4 ± 0.1 µM
O=c1[nH]cnc2c1ncn2C(CCOCP(=O)(O)O)OCCCO (centres unmarked) [20g, Sodium salt of ((3‐(3‐hydroxypropoxy)‐3‐(hypoxanthin‐9‐yl)propoxy)methyl)phosphonic acid]	> 60 µM	> 60 µM
O=c1[nH]cnc2c1cnn2C(CCOCP(=O)(O)O)OCCCO (centres unmarked) [20i, Sodium salt of ((3‐(3‐hydroxypropoxy)‐3‐(4‐oxo‐4,5‐dihydro‐1H‐pyrazolo[3,4‐d]pyrimidin‐1‐yl)propoxy)methyl)phosphonic acid]	> 60 µM	> 60 µM

Other lines, results leading:

Ki [1]	Ki [2]	SMILES
0.7 ± 0.4 µM	1 ± 0.2 µM	Nc1nc2c(ncn2C(COCCP(=O)(O)O)OCCOCP(=O)(O)O)c(=O)[nH]1 (centres unmarked) [18b, Sodium salt of (2‐(2‐(guanin‐9‐yl)‐2‐(2‐(phosphonatomethoxy)ethoxy)ethoxy)ethyl)phosphonic acid]
> 20 µM	10 ± 5 µM	O=c1[nH]cnc2c1ncn2C(COCCP(=O)(O)O)OCCO (centres unmarked) [20c, Sodium salt of (2‐(2‐(2‐hydroxyethoxy)‐2‐(hypoxanthin‐9‐yl)ethoxy)ethyl)phosphonic acid]
> 60 µM	50 ± 10 µM	O=c1[nH]c(Cl)nc2c1ncn2C(COCCP(=O)(O)O)OCCO (centres unmarked) [20e, Sodium salt of (2‐(2‐(2‐chlorohypoxanthin‐9‐yl)‐2‐(2‐hydroxyethoxy)ethoxy)ethyl)phosphonic acid]
> 60 µM	> 60 µM	O=c1[nH]cnc2c1cnn2C(COCCP(=O)(O)O)OCCO (centres unmarked) [20f, Sodium salt of (2‐(2‐(2‐hydroxyethoxy)‐2‐(4‐oxo‐4,5‐dihydro‐1H‐pyrazolo[3,4‐d]pyrimidin‐1‐yl)ethoxy)ethyl)phosphonic acid]
10 ± 3 µM	> 60 µM	Nc1nc2c(ncn2C(CCOCP(=O)(O)O)OCCCO)c(=O)[nH]1 (centres unmarked) [20h, Sodium salt of ((3‐(guanin‐9‐yl)‐3‐(3‐hydroxypropoxy)propoxy)methyl)phosphonic acid]
3.7 ± 0.9 µM	3 ± 0.5 µM	CCOC(COCCP(=O)(O)O)n1cnc2c(=O)[nH]c(N)nc21 (centres unmarked) [compound 25, Sodium salt of (2‐(2‐(guanin‐9‐yl)‐2‐ethoxyethoxy)ethyl)phosphonic acid]
